For test [1], the target named is T1, SARS-CoV-2 PLpro (nsp3 1564–1878) (Severe acute respiratory syndrome coronavirus 2, UniProt P0DTD1). Description: biochemical. The following applies: high concentration screen, read-out: % of control remaining. More on the design: FRET-quenched peptide (Pro3) cleavage by PLpro, 10 min pre-incubation, slope over 20 min, normalised to no-compound control.
Test [2] deals with T1, SARS-CoV-2 PLpro (nsp3 1564–1878). Description: biochemical. Particulars: low concentration screen, read-out: % of control remaining. On the set-up: FRET-quenched peptide (Pro3) cleavage by PLpro, 10 min pre-incubation, slope over 20 min, normalised to no-compound control.

This is an account of results in paper PMC8286840, “Identifying SARS-CoV-2 antiviral compounds by screening for small molecule inhibitors of Nsp3 papain-like protease” (Biochemical Journal, 2021).

The structures appear in SMILES notation. Structures can show the parent of a compound that is named as a salt. Where two headings read alike, the source gives them in different places.

As for `C[C@@H](NCCCc1cccc(C(F)(F)F)c1)c1cccc2ccccc12` [Cinacalcet], in test [1] (Well no.=7389), the remaining activity at 3.75 µM was 82.2%. In addition, the remaining activity at 1.25 µM in test [2] (Well no.=7389) amounted to 96.2%.

On to `CC(C)C(=O)c1c(C(C)C)nn2ccccc12` [Ibudilast], for which the remaining activity at 3.75 µM is 96.9% in test [1] (Well no.=572) and 90% in test [1] (Well no.=1581). For the same molecule, the remaining activity at 1.25 µM in test [2] (Well no.=572) came out at 98.8%; in test [2] (Well no.=1581), 89.2%.

As for `CCCCCCCCCCCCCCCCOCC(COP(=O)([O-])OCC[N+](C)(C)C)OC(C)=O` (stereo not drawn) [Enantio-PAF C16], the remaining activity at 3.75 µM in test [1] (Well no.=4455) came to 100%. Further, in test [2] (Well no.=4455), the remaining activity at 1.25 µM was 98.4%.

As to `C[C@H](N)C(=O)N1C[C@H](CCCB(O)O)[C@](N)(C(=O)O)C1` [CB-1158 (dihydrochloride)], the remaining activity at 3.75 µM in test [1] (Well no.=8743) worked out at 99.3%. In test [2] (Well no.=8743), the remaining activity at 1.25 µM amounted to 100%.

For the molecule `Cc1nc(N=Nc2ccc(C(=O)O)cc2)c(COP(=O)(O)O)c(C=O)c1O` [MRS 2159], in test [1] (Well no.=1030), the remaining activity at 3.75 µM is 101%. Besides, the remaining activity at 1.25 µM in test [2] (Well no.=1030) worked out at 102%.

With `CN(C)CCc1c[nH]c2ccc(Cn3cncn3)cc12` [Rizatriptan (benzoate)], in test [1] (Well no.=6174), the remaining activity at 3.75 µM was determined as 89.9%. In test [2] (Well no.=6174), the remaining activity at 1.25 µM worked out at 93.4%.

Turning to `N#Cc1c(Oc2cccc(OS(=O)(=O)CCCC(F)(F)F)c2)cccc1C(F)(F)F` [Bay 59-3074], the remaining activity at 3.75 µM in test [1] (Well no.=8043) is 96.5%. In addition, the remaining activity at 1.25 µM in test [2] (Well no.=8043) stood at 96.7%.

Take `O=C(Nc1ccc([N+](=O)[O-])cc1Cl)c1cc(Cl)ccc1O` [Niclosamide]: the remaining activity at 3.75 µM in test [1] (Well no.=1093) is 97.3%. For the same molecule, in test [2] (Well no.=1093), the remaining activity at 1.25 µM stood at 99.3%.

Turning to `COc1ccc(C(CN(C)C)C2(O)CCCCC2)cc1` (stereo not drawn) [Venlafaxine], the remaining activity at 3.75 µM in test [1] (Well no.=2044) was determined as 99.4%. The remaining activity at 1.25 µM in test [2] (Well no.=2044) is 100%.

For `CCOc1ccc(Cc2cc([C@@H]3O[C@H](CO)[C@@H](O)[C@H](O)[C@H]3O)ccc2Cl)cc1` [Dapagliflozin], the remaining activity at 3.75 µM in test [1] (Well no.=5291) was 95.8%. Besides, the remaining activity at 1.25 µM in test [2] (Well no.=5291) was determined as 93.4%.

Regarding `CCN1/C(=C/C(C)=O)Sc2ccc(OC)cc21` [Cdc2-Like Kinase Inhibitor, TG003], the remaining activity at 3.75 µM in test [1] (Well no.=2410) worked out at 109%. Besides, the remaining activity at 1.25 µM in test [2] (Well no.=2410) was found to be 106%.

For `O=C(Nc1ccc(CN2CCOCC2)cc1)c1ccc(-c2cccc(Cl)c2)o1` [CID 2011756], the remaining activity at 3.75 µM in test [1] (Well no.=6582) was determined as 101%. Besides, the remaining activity at 1.25 µM in test [2] (Well no.=6582) was 97.3%.

As to `CCC[S+]([O-])c1ccc2[nH]c(NC(=O)OC)nc2c1` (stereo not drawn) [Ricobendazole], in test [1] (Well no.=2021), the remaining activity at 3.75 µM was 106%. For the same molecule, the remaining activity at 1.25 µM in test [2] (Well no.=2021) was determined as 103%.

With `O=S(=O)(c1cccc2cnccc12)N1CCCNCC1` [Fasudil hydrochloride - 1-(5-Isoquinolinesulfonyl)homopiperazine hydrochloride], the remaining activity at 3.75 µM in test [1] (Well no.=2338) is 99%. For the same molecule, the remaining activity at 1.25 µM in test [2] (Well no.=2338) is 97.4%.

With `CNC1(C)C2CCC(C2)C1(C)C` (stereo not drawn) [Mecamylamine], the remaining activity at 3.75 µM in test [1] (Well no.=1556) is 102%. For the same molecule, the remaining activity at 1.25 µM in test [2] (Well no.=1556) is 103%.

As for `COc1ccccc1NC(=O)Nc1nc(-c2cccnc2)nc2ccccc12` [VUF 5574], the remaining activity at 3.75 µM in test [1] (Well no.=1384) came out at 97.5%. Also, the remaining activity at 1.25 µM in test [2] (Well no.=1384) is 101%.

For the molecule `NC(=O)c1cc(N2CC2)c([N+](=O)[O-])cc1[N+](=O)[O-]` [CB 1954], the remaining activity at 3.75 µM in test [1] (Well no.=189) is 95.5%. Moreover, the remaining activity at 1.25 µM in test [2] (Well no.=189) was determined as 94.7%.

On to `CC(=O)NS(=O)(=O)c1ccc(N)cc1` [Sulfacetamide (Sodium)], for which the remaining activity at 3.75 µM in test [1] (Well no.=7510) worked out at 102%. Moreover, the remaining activity at 1.25 µM in test [2] (Well no.=7510) was found to be 103%.

In the case of `O=c1oc2cc(O)ccc2c2oc3cc(O)ccc3c12` [Coumestrol], the remaining activity at 3.75 µM in test [1] (Well no.=3514) is 93.2%. Moreover, the remaining activity at 1.25 µM in test [2] (Well no.=3514) amounted to 100%.

In the case of `O=C(O)Cc1nn(Cc2nc3cc(C(F)(F)F)ccc3s2)c(=O)c2ccccc12` [Zopolrestat], in test [1] (Well no.=5825), the remaining activity at 3.75 µM is 98.9%. Further, the remaining activity at 1.25 µM in test [2] (Well no.=5825) came to 98.5%.
